Assay results as given in article PMC6581955, “Rosmarinic acid suppresses Alzheimer’s disease development by reducing amyloid β aggregation by increasing monoamine secretion” (Scientific Reports, 2019).
Blank lines part the entries; values can stand above or below the compound they belong to.

Assays:
[1] = test system: Aβ; set-up: method as in PMID 14994335; conditions: screen of five polyphenols; cited from earlier work
[2] = target: T1, Aβ1–42 (Homo sapiens, UniProt P05067); experiment: ThT assay (SensoLyte Thioflavin T β-Amyloid (1–42) Aggregation Kit); format: biochemical; conditions: 100 μM monoamine; for relative ThT fluorescence intensity (Aβ aggregation): 45 μM Aβ1–42, 37 °C; for time at which Aβ aggregation was significantly (p < 0.05) inhibited: 45 μM Aβ1–42, Dunnett's test
T1 construct: Dissolved lyophilized Aβ1–42 (PEPTIDE INSTITUTE, INC., Osaka, Japan); purchased PEPTIDE INSTITUTE, INC., Osaka, Japan
T1 sequence (P05067 672-713): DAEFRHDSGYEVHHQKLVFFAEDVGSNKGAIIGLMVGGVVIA
Procedure: Dissolved lyophilized Aβ1–42 (PEPTIDE INSTITUTE, INC., Osaka, Japan) in 2 mM NaOH produced a peptide concentration of 0.5 mg/mL, which was then subjected to sonication by a bath-type sonicator for 1 min prior to re-lyophilizing the resulting solution. The NaOH-treated Aβ1–42 lyophilizate was dissolved in 500 μL distilled water and sonicated for 1 min. We added 500 μL of 20 mM phosphate buffer and centrifuged the resulting solution for 10 min at 16,000 × g. The supernatant was used as the Aβ1–42 solution. Aggregation of Aβ1–42 was measured using the SensoLyte® Thioflavin T β-Amyloid (1–42) Aggregation Kit (ANASPEC Inc., Fremont, CA.) according to the manufacturer’s protocol. To measure the Aβ1–42 fibril formation in the 96-well black microplates, 10 μL of 2 mM ThT and 5 μL of each monoamine solution (2 mM) were added into each well and mixed with 85 μL Aβ1–42 solution. The final concentration of Aβ1–42 was 45 μM and that of each monoamine concentration was 100 μM. The ThT fluorescence signal was monitored with Ex/Em = 440 nm/484 nm using Varioskan LUX (Thermo Fisher Scientific) at 37 °C at intervals of 5 min and 10 min for 0–125 min and 140–175 min, respectively.
All samples were tested in triplicate, and data were shown as relative fluorescence units by subtracting the fluorescence level of the blank from the actual value.

[3] = test system: Aβ; set-up: method as in PMID 15059976, PMID 23913715; conditions: cited from earlier work
[4] = test system: striatum DA and NE; set-up: method as in PMID 25756794; conditions: fed for 20 days; with elevated Th expression in SN; cited from earlier work
[5] = test system: brain monoamines; experiment: Monoamine concentration in the whole brain of mice fed RA for 7 weeks (HPLC-ECD); format: in vivo, C57BL/6 J mice; conditions: 0.5% RA diet for 7 weeks vs control
Procedure: The whole brain was collected under isoflurane anesthesia after 7 weeks of breeding (C and RA group). Buffer (2.0 mM NaHSO3, 20 μM EDTA • 2Na, 0.10 M HClO4; 1 mL/0.1 g of brain tissue) was added to the brain sample, the mixture was then homogenized with a Polytron and centrifuged at 12,000 × g at 4 °C for 5 min to obtain a brain extract supernatant. The supernatants were recovered, passed through 0.45 μm filters, and the concentration of monoamines in the filtrates was measured using HPLC-ECD. The conditions of chromatography were given in Supplemental Methods.

[6] = Side effects in the animal study; format: in vivo, mice; conditions: RA-fed animals
[7] = cited from earlier work; for intestinal permeability: orally ingested polyphenols
[8] = test system: DA in brain sections; experiment: DA imaging by IMS (MALDI-TOFMS); format: in vivo, C57BL/6 J mice; conditions: 0.5% RA diet for 10 days
Procedure: Because it has been reported that isoflurane anesthesia increases the release of DA in rat striatum, we adopted decapitation after cervical dislocation without anesthesia to euthanize the mice after 10 days of breeding (C and RA group). The left hemisphere of the brain of each mouse was collected, then sagittal sections 8 μm thick were prepared using a cryostat (CM-3050 S; LEICA, Germany) at −25 °C and mounted on a glass slide coated with indium tin oxide. Sections were sprayed with DPP and incubated at 40 °C for 30 min, and then sprayed with 2,5-dihydroxybenzoic acid to improve ionization efficiency. The surface of the sections was ionized by irradiation with laser light at 200 μm intervals using an Ultrafle Xtreme (matrix-assisted laser desorption/ionization time-of-flight mass spectrometer) (MALDI-TOFMS) (Bruker Daltonik GmbH, Bremen, Germany). The peak of DPP-derivatized DA (m/z: 368.2), which constitutes a complex of the target substance (DA) and DPP, was measured two-dimensionally. Only DA that could be derivatized was measured.

[9] = test system: Aβ; set-up: method as in PMID 19893028; conditions: Tg2576 mice, cited from earlier work
[10] = test system: monoamines in cerebral cortex, striatum, hippocampus; experiment: Monoamine concentration in brain regions after single dose or 11 days of RA; format: in vivo, mice
Procedure: In order to examine the effect of a single dose of RA, we conducted intragastric administration of RA at 0.1 m mol/kgBW to wild type mice and measured the monoamine concentration in three brain regions (cerebral cortex, striatum, and hippocampus) after 0, 60, and 240 min. […] Therefore, we extended the RA administration period to 11 days.

[11] = test system: brain capillary endothelial cell monolayers; experiment: BBB permeability in an in vitro BBB model (BBB Kit); format: in vitro ADME; conditions: caffeine positive, Na-F negative control, n = 3
Procedure: We measured the BBB permeability by using the BBB Kit (PharmaCo-Cell, Nagasaki, Japan) according to the manufacturer’s instructions. CA was used as a positive control, and Na-F as a negative control. The concentration of the assay buffer on the brain parenchyma side was measured by HPLC–ECD as per the in vivo RA transferability test. Na-F was measured with Ex/Em = 485/538 nm using a FlexStarion 3-fluorescence-plate reader (Molecular Devices, CA, USA). The permeability coefficient (Pe: × 10^−6 cm/sec) was calculated as follows using the concentration of the test substance added to the luminal side ([C]Luminal), the concentration of test compound that passed through to the […] every 20 minutes ([C]Abluminal), and the amount on the brain parenchyma side (VAbluminal). Volume(µL)=([C]Abluminal×VAbluminal)/[C]Luminal The amount of permeation was plotted every 20 min and the value of the slope of the formula of the quantity transmitted for each time was used as the permeation index (PS). […] 1/PSendothelial=1/PStotal−1/PSmembrane Pe was calculated by dividing PSendothelial by the insert surface area (A). […]

[12] = In vivo RA transferability test (HPLC-ECD of plasma and brain); set-up: species or system C57BL/6 J mice; conditions: C57BL/6 J, mouse, plasma, oral, 0.5 % (fed), mice fed 0.5% RA for 7 weeks, mean ± S.E. (n = 5)
Procedure: The blood and whole brain were collected under isoflurane anesthesia after 7 weeks of breeding (C and RA group). The blood samples were centrifuged at 1,800 × g at 4 °C for 10 min to obtain EDTA plasma.
Phosphate-buffered saline (PBS) (1 mL/0.1 g of brain tissue) was added to the brain tissue sample and homogenized with a Polytron homogenizer. After that, the samples were centrifuged at 4,000 × g at 4 °C for 40 min to obtain the brain extract supernatant. The plasma and brain extract were processed as follows. In the β-glucuronidase-treated group, 50 μL of plasma or brain extract was suspended in 50 μL of 200 U β-glucuronidase and 0.1 M sodium acetate buffer (pH 5.0). Then the samples were incubated at 37 °C for 45 min. In the non-treated group, 50 μL of plasma or brain extract were suspended in 50 μL of 0.1 M sodium acetate buffer and incubated as above. After incubation, 200 μL of 0.83 M methyl acetate buffer was added to the samples of both groups, the protein was precipitated by vortex stirring for 1 minute, treated with sonication for 1 minute, and centrifuged at 8,500 × g at 4 °C for 5 min. The supernatants were recovered and passed through 0.45 μm filters, and the concentrations of RA and metabolites in the filtrates were measured using an Ultimate 3000 HPLC-ECD (Thermo Fisher scientific, Massachusetts, US). The conditions of chromatography were the same as the previous report.

[13] = test system: mRNA of DA-metabolizing enzymes, Tieg2, Tgf-β1; experiment: Relative mRNA measurement in cerebral cortex, SN and VTA by qRT-PCR; format: in vivo, C57BL/6 J mice
Text: The mice were divided into two groups, C and RA, as mentioned above, and fed with the appropriate diet for 11 days. We collected SN and VTA from the brain according to methods previously described. In brief, we collected the whole brain, washed it with saline, and obtained 1 mm thick coronal sections using a brain slicer BS-Z 2000C (Muromachi Kikai Co., Ltd., Tokyo, Japan). Referring to the Allen Brain Atlas[55], we acquired the SN and VTA from the relevant sections.
Total RNA was extracted from SN, and VTA using TRIzol (Invitrogen) according to the manufacturer’s manual. After checking the quality of total RNA, we synthesized cDNA using PrimeScript^TM RT Master Mix (Perfect Real Time) (TaKaRa Bio, Shiga, Japan). The primer sequences and conditions for our qRT–PCR are given in Suppl. Table S1 and Supplemental Methods. Results are expressed as mean of fold change compared with control condition (SE as error bars, n = 5, 6). All samples were tested in triplicate and the data were normalized to GAPDH (cerebral cortex) or β-actin (SN and VTA).

[14] = test system: brain serotonin concentration; set-up: method as in PMID 23009399; conditions: via inhibition of Maoa; cited from earlier work
[15] = 0.5% RA diet 11 days vs controls, P < 0.05
[16] = RA diet 11 days, normalized to β-actin

Structure (SMILES): COc1cc(/C=C/C(=O)O)ccc1O [FA, ferulic acid]
Aβ aggregation in vitro [1]: significantly inhibited

Structure (SMILES): O=C(O)Cc1ccc(O)c(O)c1 [DOPAC, 3,4-dihydroxyphenylacetic acid]
relative ThT fluorescence intensity (Aβ aggregation) [2]: lower than that in their absence

Structure (SMILES): Cn1cnc2c1c(=O)[nH]c(=O)n2C [theobromine]
DA and NE concentrations in the striatum [4]: significant increases

Structure (SMILES): O=C(/C=C/c1ccc(O)c(O)c1)O[C@H](Cc1ccc(O)c(O)c1)C(=O)O [RA, rosmarinic acid]
DA concentration in whole brain [5]: changed but not significantly
DOPAC concentration in whole brain [5]: significantly increased
L-DOPA concentration in whole brain [5]: significantly increased
NE concentration in whole brain [5]: changed but not significantly
side effects including nausea and vomiting [6]: not observed
Aβ aggregation in vitro [1]: significantly inhibited
intestinal permeability [7]: ~1%
intestinal permeability, of intake volume ([7]; previous in vitro study): < 1%
DPP-derivatized DA signals in cerebral cortex and striatum [8]: more strongly than in control group
Aβ deposition in the brain (immunohistochemistry) ([9]; RA diet for 10 months): significantly decreased
Aβ aggregation inhibitory activity in the brain, among five polyphenols [9]: highest
DOPAC level in cerebral cortex [10, 15]: increased significantly
L-DOPA level in cerebral cortex [10, 15]: increased significantly
NE level in cerebral cortex [10, 15]: increased significantly
DA level in cerebral cortex ([10]; 0.5% RA diet 11 days vs controls, P = 0.068): somewhat increased
monoamine concentration in striatum and hippocampus ([10]; RA diet 11 days, data not shown): not significantly changed
monoamine concentration in cerebral cortex, striatum and hippocampus ([10]; single intragastric dose 0.1 m mol/kgBW, 0, 60, 240 min, data not shown): no significant differences
transendothelial permeability (Pe) [11]: lowest value
concentration at 7 weeks ([12]; β-glucuronidase not reacted): 590 ± 220 nM
concentration at 7 weeks ([12]; β-glucuronidase reacted): 750 ± 150 nM
Tgf-β1 gene expression in SN and VTA ([13]; RA diet 11 days): significantly downregulated
Tieg2 gene expression in SN and VTA ([13]; RA diet 11 days vs controls): significantly decreased
Th mRNA level in cerebral cortex ([13]; RA diet 11 days, P = 0.13): somewhat increased
mRNA levels of DA-metabolizing enzymes in cerebral cortex ([13]; RA diet 11 days, normalized to GAPDH): no significant difference
Comt mRNA expression in SN [13, 16]: significantly downregulated
Maob mRNA expression in SN [13, 16]: significantly downregulated
Maob mRNA expression in VTA [13, 16]: significantly downregulated

Structure (SMILES): O=c1c(O)c(-c2ccc(O)c(O)c2)oc2cc(O)cc(O)c12 [quercetin]
brain serotonin concentration [14]: suppressed a decrease

Structure (SMILES): COc1cc(/C=C/C(=O)CC(=O)/C=C/c2ccc(O)c(OC)c2)ccc1O [Cur, curcumin, reference compound]
Aβ aggregation in vitro [1]: significantly inhibited
intestinal permeability [7]: approximately 0.1%

More lines, main results first:

relative ThT fluorescence intensity (Aβ aggregation) [2]: lower than that in their absence
time at which Aβ aggregation was significantly (p < 0.05) inhibited [2]: 15 to 160 min
Structure (SMILES): NCCc1ccc(O)c(O)c1 [DA, dopamine]
Aβ aggregation [3]: inhibit

relative ThT fluorescence intensity (Aβ aggregation) [2]: lower than that in their absence
time at which Aβ aggregation was significantly (p < 0.05) inhibited [2]: 20 to 160 min
Structure (SMILES): N[C@@H](Cc1ccc(O)c(O)c1)C(=O)O [L-DOPA, levodopa]
Aβ aggregation [3]: inhibit

relative ThT fluorescence intensity (Aβ aggregation) [2]: lower than that in their absence
time at which Aβ aggregation was significantly (p < 0.05) inhibited [2]: 20 to 160 min
Structure (SMILES): NC[C@H](O)c1ccc(O)c(O)c1 [NE, norepinephrine]
